Measurements taken from ChEMBL document CHEMBL5338769, “Discovery of Norisoboldine Analogue III11 as a Novel and Potent Aryl Hydrocarbon Receptor Agonist for the Treatment of Ulcerative Colitis” (J Med Chem, 2023).
pIC50: −log10 of the molar value. Active and inactive are the calls of the source. The calls are words filed in the database; no cut-off is given here.

What was measured:
[1] = Induction of cell differentiation in C57BL/6 mouse naive regulatory T cells assessed as increase in […] mRNA level by measuring fold change at 3 uM incubated for 72 hrs by qRT-PCR analysis; type: functional
[2] = system: Mus musculus; test: Anti-colitis activity against DSS-induced ulcerative colitis C57BL/6 mouse model assessed as amelioration of epithelial change score by measuring crypt abscesses in colon at 10 to 20 mg/kg, po administered once a day for 10 days by H&E staining based histopathological analysis; type: functional, organism-based; details: dose 10-20 mg/kg, time 10.0 day
[3] = Cmax in Sprague-Dawley rat at 30 mg/kg, po measured at 120 min by LC-MS/MS analysis; type: ADME, organism-based; design: dose 30 mg/kg, time 120 min, route po; details: in vivo
[4] = Unbound drug concentration in rat plasma at 10.74 ug/ml of total concentration measured after 12 hrs by ultrafiltration based HPLC analysis; type: ADME, cell-free; details: dose 10.74 µg/ml
[5] = system: Mus musculus; test: Anti-colitis activity in DSS-induced ulcerative colitis C57BL/6 mouse model assessed as CD4+CD25+Foxp3+ Treg cell percentage in spleen at 10 mg/kg, po administered once a day for 10 days by flow cytometric analysis (reference value: 3.3%); type: functional; details: time 10 day
[6] = system: Mus musculus; test: Anti-colitis activity in DSS-induced ulcerative colitis C57BL/6 mouse model assessed as decrease in IL-17 expression at 20 mg/kg, po administered once a day for 10 days by qRT-PCR analysis; type: functional; design: scale not given: the % may be the effect or the level left; details: time 10 day
[7] = Tmax in Sprague-Dawley rat at 30 mg/kg, po measured upto 1440 min by LC-MS/MS analysis; type: ADME, organism-based; details: in vivo
[8] = system: Mus musculus; test: Anti-colitis activity in DSS-induced ulcerative colitis C57BL/6 mouse model assessed as increase in CD4+CD25+Foxp3+ Treg cell ratio in mesenteric lymph nodes at 20 mg/kg, po administered once a day for 10 days by flow cytometric analysis (reference value: 4.5 %); type: functional; details: time 10 day
[9] = system: Mus musculus; test: Anti-colitis activity against DSS-induced ulcerative colitis C57BL/6 mouse model assessed as decrease in disease activity index score at 20 mg/kg, po administered once a day for 10 days; type: functional, organism-based; details: time 10.0 day
[10] = system: Mus musculus; test: Anti-colitis activity against DSS-induced ulcerative colitis C57BL/6 mouse model assessed as amelioration of epithelial change score by measuring loss of goblet cells in colon at 10 to 20 mg/kg, po administered once a day for 10 days by H&E staining based histopathological analysis; type: functional, organism-based; details: dose 10-20 mg/kg, time 10.0 day
[11] = target: T1, Aryl hydrocarbon receptor (Mus musculus, UniProt P30561); test: Activation of AhR transcription in C57BL/6 mouse naive T cells assessed as increase in UGT1A1 mRNA expression at 1 to 3 uM by qRT-PCR analysis; type: cell-based; details: t cell, dose 1-3 µM
T1 sequence (P30561 whole entry): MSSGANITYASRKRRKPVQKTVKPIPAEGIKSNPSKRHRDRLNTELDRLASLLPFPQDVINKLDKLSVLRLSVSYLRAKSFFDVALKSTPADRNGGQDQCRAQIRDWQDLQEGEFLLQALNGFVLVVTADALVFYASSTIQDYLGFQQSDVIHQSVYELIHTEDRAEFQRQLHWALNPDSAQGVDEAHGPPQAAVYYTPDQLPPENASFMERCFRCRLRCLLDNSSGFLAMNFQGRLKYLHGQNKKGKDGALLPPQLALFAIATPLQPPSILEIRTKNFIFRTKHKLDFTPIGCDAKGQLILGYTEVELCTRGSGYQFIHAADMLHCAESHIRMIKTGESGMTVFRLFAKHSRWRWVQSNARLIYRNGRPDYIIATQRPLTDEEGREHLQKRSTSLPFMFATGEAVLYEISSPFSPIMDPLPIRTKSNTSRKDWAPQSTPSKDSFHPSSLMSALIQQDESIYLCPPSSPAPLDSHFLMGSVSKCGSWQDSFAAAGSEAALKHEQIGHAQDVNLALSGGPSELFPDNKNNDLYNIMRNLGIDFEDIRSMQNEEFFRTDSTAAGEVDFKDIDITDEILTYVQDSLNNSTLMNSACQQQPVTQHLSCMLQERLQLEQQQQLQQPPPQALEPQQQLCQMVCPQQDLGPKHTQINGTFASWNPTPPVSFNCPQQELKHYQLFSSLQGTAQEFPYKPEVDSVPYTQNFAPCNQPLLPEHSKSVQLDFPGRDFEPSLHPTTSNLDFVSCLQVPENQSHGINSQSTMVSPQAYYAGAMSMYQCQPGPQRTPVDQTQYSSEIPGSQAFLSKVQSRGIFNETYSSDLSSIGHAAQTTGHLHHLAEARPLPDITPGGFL

[12] = system: EL4; test: Cytotoxicity against mouse EL4 cells assessed as inhibition of cell proliferation incubated for 72 hrs by MTT assay; type: functional, cell-based; details: EL4, 72 h
[13] = target: T1, Aryl hydrocarbon receptor; test: Induction of AhR nuclear translocation in C57BL/6 mouse naive T cells at 1 to 10 uM incubated for 48 hrs by immunofluorescence based inverted microscopic analysis; details: t cell, dose 1-10 µM
[14] = Induction of cell differentiation in C57BL/6 mouse naive regulatory T cells assessed as increase in IL-10 mRNA level by measuring fold change at 3 uM incubated for 72 hrs by qRT-PCR analysis; type: functional
[15] = Induction of cell differentiation in C57BL/6 mouse naive regulatory T cells assessed as increase in cell frequency at 0.3 uM incubated for 72 hrs by flow cytometric analysis (reference value: 24.9%); type: functional
[16] = system: Regulatory T cell; test: Induction of cell differentiation in C57BL/6 mouse naive regulatory T cells at 1 uM incubated for 72 hrs by flow cytometric analysis; type: functional, cell-based
[17] = system: Mus musculus; test: Anti-colitis activity against DSS-induced ulcerative colitis C57BL/6 mouse model assessed as increase in Foxp3 mRNA level by measuring fold change at 10 mg/kg, po administered once a day for 10 days by qRT-PCR analysis; type: functional; details: time 10 day
[18] = AUC(0 to infinity) in Sprague-Dawley rat at 30 mg/kg, po measured upto 1440 min by LC-MS/MS analysis; type: ADME, organism-based; design: time < 1440 min, dose 30 mg/kg, route po; details: in vivo
[19] = Unbound drug concentration in rat plasma at 21.67 ug/ml of total concentration measured after 12 hrs by ultrafiltration based HPLC analysis; type: ADME, cell-free; details: dose 21.67 µg/ml
[20] = Unbound drug concentration in rat plasma at 48.02 ug/ml of total concentration measured after 12 hrs by ultrafiltration based HPLC analysis; type: ADME, cell-free; details: dose 48.02 µg/ml
[21] = system: EL4; test: Cytotoxicity against mouse EL4 cells assessed as reduction of cell vaibility at 10 uM incubated for 72 hrs by MTT assay; type: functional, cell-based
[22] = Upregulation of GATA3 expression level in DSS-induced ulcerative colitis C57BL/6 mouse model assessed as fold change at 20 mg/kg, po administered once a day for 10 days by qRT-PCR analysis; type: functional; details: time 10 day
[23] = Apparent oral clearance in Sprague-Dawley rat at 30 mg/kg measured upto 1440 min by LC-MS/MS analysis; type: ADME, organism-based; details: in vivo, 24 h
[24] = system: Mus musculus; test: Anti-colitis activity against DSS-induced ulcerative colitis C57BL/6 mouse model assessed as decrease in colon MPO activity at 10 to 20 mg/kg, po administered once a day for 10 days; type: functional, organism-based; details: dose 10-20 mg/kg, time 10.0 day
[25] = Cmax in Sprague-Dawley rat at 3 mg/kg, iv measured at 120 min by LC-MS/MS analysis; type: ADME, organism-based; design: time 120 min, dose 3 mg/kg, route iv; details: in vivo

COc1cc2c3c(c1)-c1ccc(O)cc1CC3NCC2 (stereo not given)
fold change (FC) [1]: 1.4 | Activity [2]: Active | Cmax [3]: 789 ng/mL | Cp(f) [4]: 1440 ng/mL | Activity [5]: 3.2% | Activity [6]: 86.96% | Tmax [7]: 2 h | Activity [8]: 8.5% | Activity [9]: Active | Activity [10]: Active | Activity [11]: Active | pIC50 [12]: 4.55 | Activity [13]: Active | fold change (FC) [14]: 2.4 | Activity [15]: 26.7% | Activity [16]: Active | fold change (FC) [17]: 1.88 | AUC(0-inf) [18]: 8520 ng·h/mL | Cp(f) [19]: 3230 ng/mL | Cp(f) [20]: 6670 ng/mL | Activity [21]: inactive | fold change (FC) [22]: 1.14 | CL/F [23]: 0 mg/(ng/ml)/min | Activity [24]: Active | Cmax [25]: 396 ng/mL
